We go through 11 compounds from ChEMBL document CHEMBL1201862, “PubChem BioAssay data set” (2004).

Assay in all cases: NCI anticancer screen, dose series, 48 h
The test system of experiment [1] is U-251.
In experiment [2] the test system is SNB-19.
Experiment [3] has as its system SR.
Experiment [4] concerns 786-0.
Experiment [5] has as its system T47D.
Experiment [6] has as its system SK-MEL-2.
For experiment [7], the system named is OVCAR-4.
In experiment [8] the test system is KM12.
Experiment [9] has as its system HOP-92.
The subject of experiment [10] is HCC 2998.
Experiment [11] relates to LOX IMVI.
The subject of experiment [12] is NCI-H522.
Experiment [13] deals with A498.
In experiment [14] the test system is MDA-MB-231.
Experiment [15] concerns SW-620.
Experiment [16] has as its system M14.
The test system of experiment [17] is SF-295.
Experiment [18] relates to RXF 393.
Experiment [19] deals with EKVX.
Experiment [20] has as its system HOP-62.

Each structure is given as a SMILES string.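 Briefly, cells in 96-well plates were exposed to five compound concentrations for 48 h, and endpoints were estimated by linear interpolation. GI50 is the concentration that inhibits growth by half.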 Active and inactive are the calls of the source. Cut-off read from the data, not from the text of the source: active = GI50 up to about 1.1 µM and inactive = higher.

For the compound `O=c1oc2ccccc2c(-c2ccc(O)cc2)c1Oc1ccc(Cl)cc1`, the GI50 in experiment [1] was 22.3 µM (inactive); in experiment [2], 22.4 µM (inactive); in experiment [3], 18.2 µM (inactive); in [4], 26.9 µM (inactive); in experiment [5] it was 29.6 µM (inactive); in experiment [6] it was 17.9 µM (inactive). In addition, the GI50 in experiment [7] is 38.4 µM (inactive); in [8], 26.5 µM (inactive); in [9] it was 19.8 µM (inactive); in experiment [10], 16.9 µM (inactive); in [11], 24.7 µM (inactive); in [12], 16.9 µM (inactive). Besides, the GI50 was 26.6 µM (inactive) in [13]; 22.4 µM (inactive) in experiment [14]; 30.5 µM (inactive) in experiment [15]; 17.1 µM (inactive) in experiment [16]; 17 µM (inactive) in experiment [17]; 19.4 µM (inactive) in [18]. Besides, the GI50 in experiment [19] is 16.8 µM (inactive).
Take `C/C(=N\NC(=[Se])N1CCN(c2ccccn2)CC1)c1ccccn1`: the GI50 was 0.00925 µM (active) in experiment [1]; 1.14 µM (inactive) in [2]; 0.00622 µM (active) in experiment [3]; 0.243 µM (active) in experiment [4]; 0.01 µM (active) in [5]; 0.238 µM (active) in experiment [6]. The GI50 in experiment [7] was 0.0933 µM (active); in [8], 0.598 µM (active); in [20], 0.0728 µM (active); in [9], 0.508 µM (active); in [10], 11.1 µM (inactive); in [11] it was 0.0268 µM (active). Further, the GI50 in experiment [12] is 0.125 µM (active); in [13] it was 4.51 µM (inactive); in experiment [14] it was 0.01 µM (active); in experiment [15], 0.01 µM (active); in experiment [16], 0.102 µM (active); in experiment [17] it was 2.42 µM (inactive). The GI50 in experiment [18] was 0.0352 µM (active).
Consider `CS(=O)(=O)Nc1ccc2c(c1)N(S(C)(=O)=O)CC2CCl` (centres undefined), for which the GI50 in [1], in experiment [3], in experiment [4], in experiment [5], in experiment [6] and in [7] was > 100 µM (inactive) each time. Besides, the GI50 in experiment [8], in experiment [20], in experiment [9], in experiment [10], in [11] and in experiment [12] was > 100 µM (inactive) in each case. The GI50 in experiment [13], in [14], in experiment [15], in experiment [17], in experiment [18] and in [19] was > 100 µM (inactive) in each case.
In the case of `O=c1cc(NNCc2ccccc2)[nH]c(=O)[nH]1`, the GI50 was > 100 µM (inactive) in [1]; > 100 µM (inactive) in experiment [2]; > 100 µM (inactive) in experiment [3]; > 100 µM (inactive) in experiment [4]; 0.678 µM (active) in [5]; > 100 µM (inactive) in experiment [7]. For the same compound, the GI50 in experiment [8] was > 100 µM (inactive); in [20] it was > 100 µM (inactive); in experiment [9] it was 4.68 µM (inactive); in experiment [10], > 100 µM (inactive); in [11] it was > 100 µM (inactive); in experiment [13], > 100 µM (inactive). Besides, the GI50 in experiment [14], in [15], in experiment [16], in experiment [17], in [18] and in experiment [19] was > 100 µM (inactive) throughout.
As for `Cc1ccc([N+](=O)[O-])cc1S(=O)(=O)Nc1ccc(C2=NOC(c3ccccc3O)C2)cc1` (centres undefined), the GI50 in experiment [2] is 3.31 µM (inactive); in experiment [3], 0.577 µM (active); in [4], 8.65 µM (inactive); in experiment [5] it was 6 µM (inactive); in [6], 2.74 µM (inactive); in [7], 3 µM (inactive). For the same compound, the GI50 in experiment [8] was 3.16 µM (inactive); in experiment [20] it was 5.12 µM (inactive); in experiment [9] it was 26.2 µM (inactive); in experiment [10] it was 7.01 µM (inactive); in [11], 9.95 µM (inactive); in experiment [12], 1.29 µM (inactive). Moreover, the GI50 was 2.84 µM (inactive) in experiment [13]; 4.5 µM (inactive) in experiment [14]; 4.18 µM (inactive) in experiment [15]; 2.19 µM (inactive) in experiment [16]; 3.85 µM (inactive) in [17]; 2.26 µM (inactive) in experiment [18]. For the same compound, the GI50 in experiment [19] was 17.1 µM (inactive).
With `COc1cc(-c2ccccc2N)c2cccnc2c1OC`, the GI50 in experiment [1] is 4.21 µM (inactive); in experiment [2], 4.75 µM (inactive); in experiment [3], 1.67 µM (inactive); in [4], 2.83 µM (inactive); in experiment [5] it was 4.04 µM (inactive); in experiment [6], 12.9 µM (inactive). Further, the GI50 in experiment [7] was 6.3 µM (inactive); in experiment [8], 6.07 µM (inactive); in [20], 5.26 µM (inactive); in experiment [9], 9.53 µM (inactive); in experiment [11], 3.4 µM (inactive); in experiment [12] it was 3.59 µM (inactive). Besides, the GI50 in experiment [13] was 14.1 µM (inactive); in experiment [14], 6.22 µM (inactive); in experiment [15], 2.92 µM (inactive); in experiment [16], 6.28 µM (inactive); in experiment [17], 1.54 µM (inactive); in experiment [18], 15.2 µM (inactive). The GI50 in experiment [19] was 5.06 µM (inactive).
With `[N-]=[N+]=Nc1cccc(-c2nnc(Cl)cc2O)c1`, the GI50 in [1], in experiment [3], in experiment [4], in experiment [5], in experiment [7] and in experiment [8] was > 100 µM (inactive) each time. Further, the GI50 in [20], in experiment [9], in experiment [10], in experiment [11], in experiment [12] and in experiment [13] was > 100 µM (inactive) throughout. Moreover, the GI50 in [14], in experiment [15], in experiment [16], in experiment [17], in [18] and in [19] was > 100 µM (inactive) in each case.
Turning to `Nc1nccc(NCC2(CO)CC(OCc3ccccc3)C2)n1` (centres undefined), the GI50 in experiment [1] was > 100 µM (inactive); in [3], > 100 µM (inactive); in experiment [4], > 100 µM (inactive); in [5], 7.98 µM (inactive); in [6] it was > 100 µM (inactive); in experiment [7], 48.3 µM (inactive). Further, the GI50 was > 100 µM (inactive) in [8]; > 100 µM (inactive) in experiment [20]; 56.9 µM (inactive) in experiment [9]; > 100 µM (inactive) in experiment [10]; > 100 µM (inactive) in [11]; 98.9 µM (inactive) in experiment [12]. Also, the GI50 is > 100 µM (inactive) in [13]; > 100 µM (inactive) in experiment [14]; > 100 µM (inactive) in experiment [15]; > 100 µM (inactive) in experiment [17]; > 100 µM (inactive) in experiment [18]; 77.4 µM (inactive) in experiment [19].
For the compound `C#CCCOC(=O)c1ccccc1OC(C)=O`, the GI50 in experiment [1], in experiment [2], in experiment [3], in experiment [4], in experiment [5] and in experiment [6] was > 100 µM (inactive) each time. For the same compound, the GI50 was > 100 µM (inactive) in [7]; > 100 µM (inactive) in experiment [8]; 70.3 µM (inactive) in experiment [20]; > 100 µM (inactive) in experiment [9]; > 100 µM (inactive) in experiment [11]; 63.7 µM (inactive) in experiment [12]. Further, the GI50 in [13], in [14], in experiment [15], in experiment [16], in experiment [17] and in [18] was > 100 µM (inactive) in each case. The GI50 in experiment [19] was > 100 µM (inactive).
`CNC(=S)/C(C#N)=C(\N)N1CCN(C)CC1`: the GI50 in experiment [1], in [2], in [3], in experiment [4], in [5] and in experiment [6] was > 100 µM (inactive) in each case. Besides, the GI50 in experiment [8], in experiment [20], in experiment [9], in [10], in experiment [11] and in [12] was > 100 µM (inactive) in each case. The GI50 in [13] is > 100 µM (inactive); in experiment [14] it was 30.5 µM (inactive); in [15] it was > 100 µM (inactive); in experiment [16], > 100 µM (inactive); in experiment [17], > 100 µM (inactive); in experiment [18] it was > 100 µM (inactive). In addition, the GI50 in experiment [19] is > 100 µM (inactive).
With `Cc1ccc2c(c1C)C(=O)C1(C2)Cc2ccc3c(c2C1=O)CCC3` (centres undefined), the GI50 in [1], in experiment [2], in experiment [3], in experiment [4], in experiment [5] and in [6] was > 100 µM (inactive) throughout. The GI50 in experiment [7], in experiment [8], in [9], in [10], in experiment [12] and in [13] was > 100 µM (inactive) throughout. In addition, the GI50 in experiment [14] was > 100 µM (inactive); in experiment [15], > 100 µM (inactive); in experiment [16], 2.03 µM (inactive); in experiment [17] it was > 100 µM (inactive); in experiment [18], 41.8 µM (inactive); in experiment [19], > 100 µM (inactive).
